Measured values published in patent US20250163052A1, “cGAS INHIBITORS AND USES THEREOF” (Cornell University, priority 2022, published 2025).

What was measured:
IFNB = assay: THP1-Dual cells transfected with DNA, Ifnb expression (Quantiluc); assay type: cell-based; details: Homo sapiens; for inhibition at 10 µM: THP-1, 10 μM; for inhibition at 30 µM: THP-1, 30 μM
In short: (§1)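 THP1-Dual cells were treated with compounds at various dilutions for 4 h, then transfected with DNA (2 ug/ml) using lipofectamine and incubated overnight. Supernatant Ifnb reporter was read with Quantiluc and nfkb reporter with Quantiblue; viability was measured by CellTiter-Glo.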

[1] = Metabolic stability in mouse liver microsomes; details: for Remaining (NCF = 60 min) / Remaining (T = 60 min): mouse liver microsomes; for Remaining (NCF = 60 min): no co-factor (no NADPH); for Remaining (T = 60 min): 60 min with NADPH; for CLint scaled / half-life / microsomal CLint: mouse, liver microsomes
THP1 cells = assay: THP1-Dual cells, cell viability (CellTiter-Glo); assay type: cell-based
In short: as §1

[2] = Metabolic stability in human liver microsomes; details: for Remaining (NCF = 60 min) / Remaining (T = 60 min): human liver microsomes; for Remaining (NCF = 60 min): no co-factor (no NADPH); for Remaining (T = 60 min): 60 min with NADPH; for CLint scaled / half-life / microsomal CLint: human, liver microsomes
m-cGAS = m-cGAS (Mus musculus, UniProt Q8C6L5); assay: Cell-free mouse cGAS enzyme inhibition assay (ATP depletion, Kinase-Glo Max); assay type: biochemical; details: 1 h; for inhibition at 1 µM: read-out: m-cGAS, conc. 1 μM; for inhibition at 10 µM: read-out: m-cGAS, conc. 10 μM
h-cGAS = h-cGAS (Homo sapiens, UniProt Q8N884); assay: Cell-free human cGAS enzyme inhibition assay (ATP depletion, Kinase-Glo Max); assay type: biochemical; details: 3 h; for inhibition at 1 µM: read-out: h-cGAS, conc. 1 μM; for inhibition at 10 µM: read-out: h-cGAS, conc. 10 μM
[3] = Protein binding in mouse brain homogenates; assay type: in vitro ADME; details: for recovery at 6 h / fraction unbound at 6 hr: brain homogenate; for fraction unbound at 6 hr: read-out: % BoundBrain (converted)
NFkB-SEAP = assay: THP1-Dual cells transfected with DNA, nfkb expression (Quantiblue); assay type: cell-based; details: Homo sapiens; for inhibition at 10 µM: THP-1, 10 μM; for inhibition at 30 µM: THP-1, 30 μM
In short: as §1

Chain of h-cGAS (Q8N884 whole entry): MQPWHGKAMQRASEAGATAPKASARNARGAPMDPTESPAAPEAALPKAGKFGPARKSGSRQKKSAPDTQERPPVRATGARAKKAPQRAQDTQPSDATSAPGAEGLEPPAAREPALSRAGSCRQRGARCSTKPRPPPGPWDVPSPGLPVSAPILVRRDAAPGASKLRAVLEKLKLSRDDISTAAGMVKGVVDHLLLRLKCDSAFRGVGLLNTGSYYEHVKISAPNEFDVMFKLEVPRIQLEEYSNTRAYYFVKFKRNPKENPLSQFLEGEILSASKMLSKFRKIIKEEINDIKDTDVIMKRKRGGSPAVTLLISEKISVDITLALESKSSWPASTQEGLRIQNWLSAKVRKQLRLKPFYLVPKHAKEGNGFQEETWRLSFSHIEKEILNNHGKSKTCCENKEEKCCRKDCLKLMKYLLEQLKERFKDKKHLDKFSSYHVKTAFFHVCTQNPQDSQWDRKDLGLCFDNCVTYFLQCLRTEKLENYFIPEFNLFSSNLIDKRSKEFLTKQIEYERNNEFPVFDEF
Chain of m-cGAS (Q8C6L5 whole entry): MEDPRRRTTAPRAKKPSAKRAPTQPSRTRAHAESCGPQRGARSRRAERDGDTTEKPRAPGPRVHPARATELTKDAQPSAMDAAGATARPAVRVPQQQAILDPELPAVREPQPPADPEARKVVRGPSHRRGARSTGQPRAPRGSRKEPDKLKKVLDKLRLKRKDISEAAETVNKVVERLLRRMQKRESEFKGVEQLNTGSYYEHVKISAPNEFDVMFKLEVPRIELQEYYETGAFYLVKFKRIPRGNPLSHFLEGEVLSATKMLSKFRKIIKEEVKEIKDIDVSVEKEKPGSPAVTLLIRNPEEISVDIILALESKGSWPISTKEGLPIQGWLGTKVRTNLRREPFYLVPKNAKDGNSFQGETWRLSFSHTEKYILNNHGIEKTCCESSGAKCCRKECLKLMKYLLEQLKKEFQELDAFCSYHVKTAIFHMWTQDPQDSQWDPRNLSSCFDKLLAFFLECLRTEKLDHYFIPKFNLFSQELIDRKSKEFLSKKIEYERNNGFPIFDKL

| Structure (SMILES) | inhibition at 10 µM (IFNB) [%] | inhibition at 30 µM (IFNB) [%] | Remaining (NCF = 60 min) [1] [%] | Remaining (T = 60 min) [1] [%] | CLint scaled [1] [mL/min/kg] | half-life [1] [h] | microsomal CLint [1] [µL/min/mg] | Cell viability 10 μM (THP1 cells) | Cell viability 30 μM (THP1 cells) | Remaining (NCF = 60 min) [2] [%] | Remaining (T = 60 min) [2] [%] | CLint scaled [2] [mL/min/kg] | half-life [2] [h] | microsomal CLint [2] [µL/min/mg] | inhibition at 10 µM (m-cGAS) [%] | inhibition at 10 µM (h-cGAS) [%] | LogK [3] | % Remaining at 6 hr [3] [%] | recovery at 6 h [3] [%] | fraction unbound at 6 hr [3] | other results |
| --- | --- | --- | --- | --- | --- | --- | --- | --- | --- | --- | --- | --- | --- | --- | --- | --- | --- | --- | --- | --- | --- |
| Cn1cc(-c2cc(Cl)c(Cl)c3oc4c(c23)CN(C(=O)CN)CC4)cn1 [Compound 33] | 25 to 49 | 75 to 100 | 90.0 | 72.5 | 38.5 | 2.38 | 9.7 | +++ (+, ++, and +++ mean the compound respectively shows 25-49%; 50-74%; or 75-100% viability to cells) | + (+, ++, and +++ mean the compound respectively shows 25-49%; 50-74%; or 75-100% viability to cells) | 109.6 | 87.6 | < 8.6 | > 2.42 | < 9.6 | 75 to 100 | 75 to 100 | >4.39 | 90.87 | < 82.4 | < 4e-05 | inhibition at 1 µM (m-cGAS): 75 to 100%; inhibition at 1 µM (h-cGAS): 50 to 74%; inhibition at 10 µM (NFkB-SEAP): 25 to 49%; inhibition at 30 µM (NFkB-SEAP): 75 to 100% |
| Cn1cc(-c2cc(Cl)c(Cl)c3sc4c(c23)CCN(C(=O)CN)C4)cn1 [Compound 74] | 75 to 100 | 75 to 100 | 97.8 | 84.8 | < 38 | > 2.42 | < 9.6 | +++ (+, ++, and +++ mean the compound respectively shows 25-49%; 50-74%; or 75-100% viability to cells) | − (Cell viability <24%, in THP1 cells is expressed as “−”) | 89.2 | 93.6 | < 8.6 | > 2.42 | < 9.6 | 75 to 100 | 25 to 49 | 1.12 | 98.24 | 92.8 | 0.0706 | inhibition at 1 µM (m-cGAS): 25 to 49%; inhibition at 1 µM (h-cGAS): 0 to 24%; inhibition at 10 µM (NFkB-SEAP): 25 to 49%; inhibition at 30 µM (NFkB-SEAP): 50 to 74% |
| Cn1cc(-c2cc(Cl)c(Cl)c3nc4c(n23)CN(C(=O)CO)CC4)cn1 [Compound 99] |  |  |  |  |  |  |  |  |  |  |  |  |  |  | 0 to 24 | 0 to 24 | 0.64 | 99.35 | 90.1 | 0.19 |  |
